Among the data in patent US4220644A, “7-Acylamino-3-(substituted tetrazolyl thiomethyl) cephalosporins” (SmithKline Corporation, priority 1976, dated 1980) are ED50 and MIC values, retold here.

One assay has as its system E. coli 12140. The assay can be described thus: In vivo mouse protection (Table 2), E. coli 12140. From the text:
(§1) Compound names corresponding to numbers are given in the experimental section. For comparative purposes, data for cephamandole, which is 7-mandelamido-3-(1-methyltetrazol-5-ylthiomethyl)-3-cephem-4-carboxylic acid, is also given in Tables 1 and 2.

Another assay deals with Proteus morgani 179. The assay can be described thus: MIC in vitro (Table 1), Proteus morgani 179. The assay is classed as cell-based.
Description: as §1

The test system of the next assay is Strep. Faecalis HH 34358. The assay can be described thus: MIC in vitro (Table 1), Strep. Faecalis HH 34358. The assay is classed as cell-based. Particulars: in vitro, Strep. Faecalis HH 34358.
Description: as §1

In a further assay the test system is Shigella HH 117. The assay is described as follows: MIC in vitro (Table 1), Shigella HH 117. Type of assay: cell-based. The source says:
(§2) The compounds of Formula I have antibacterial activity against both Gram-positive and Gram-negative organisms. […] Compound names corresponding to numbers are given in the experimental section. For comparative purposes, data for cephamandole, which is 7-mandelamido-3-(1-methyltetrazol-5-ylthiomethyl)-3-cephem-4-carboxylic acid, is also given in Tables 1 and 2.

The next assay relates to Kleb. pneumo. 4200. The assay is described as follows: In vivo mouse protection (Table 2), Kleb. pneumo. 4200.
Description: as §1

The test system of a further assay is Kleb. pneumo. SK 1200. The assay is described as follows: MIC in vitro (Table 1), Kleb. pneumo. SK 1200. The assay is classed as cell-based.
Description: as §1

The test system of a further assay is E. coli HH 33779. The assay is described as follows: MIC in vitro (Table 1), E. coli HH 33779. The assay is classed as cell-based.
Description: as §1

Another assay concerns Salmonella ATCC 12176. The assay can be described thus: MIC in vitro (Table 1), Salmonella ATCC 12176. The assay is classed as cell-based. Particulars: Salmonella, ATCC12176, in vitro, read-out: MIC.
Description: as §2

A further assay deals with Pseudo. sp. HH 63. The assay can be described thus: MIC in vitro (Table 1), Pseudo. sp. HH 63. Type of assay: cell-based. Particulars: in vitro, Pseudo. sp. HH 63; read-out: MIC.
Description: as §2

Another assay relates to Entero. cloacae HH 31254. The assay is described as follows: MIC in vitro (Table 1), Entero. cloacae HH 31254. Particulars: Enterobacter cloacae. The assay is classed as cell-based.
Description: as §1

Another assay relates to S. aureus HH 127. The assay is described as follows: MIC in vitro (Table 1), S. aureus HH 127. Type of assay: cell-based. Particulars: Staphylococcus aureus.
Description: as §1

For a further assay, the system named is Kleb. pneumo. SK 4200. The assay is described as follows: MIC in vitro (Table 1), Kleb. pneumo. SK 4200. The assay is classed as cell-based.
Description: as §1

Another assay has as its system S. aureus SK 23390. The assay is described as follows: MIC in vitro (Table 1), S. aureus SK 23390. The assay is classed as cell-based. Particulars: Staphylococcus aureus.
Description: as §1

In the next assay the test system is E. coli SK 12140. The assay can be described thus: MIC in vitro (Table 1), E. coli SK 12140. Type of assay: cell-based. Particulars: Escherichia coli, SK12140, in vitro.
Description: as §1

Assay [1] concerns Entero. aerog. ATCC 13048. The assay can be described thus: MIC in vitro (Table 1), Entero. aerog. ATCC 13048. The assay is classed as cell-based.
Description: as §1

In a further assay the test system is Serra. Marc. ATCC 13880. The assay is described as follows: MIC in vitro (Table 1), Serra. Marc. ATCC 13880. The assay is classed as cell-based.
Description: as §1

[2] abbreviates: Escherichia coli, 12140, po, E. coli 12140, p.o.
Setting [3] is: Escherichia coli, 12140, sc, E. coli 12140, s.c.
The mark [4] stands for this setting: Enterococcus faecalis, read-out: MIC.
Setting [5] is: Shigella, HH117, in vitro, read-out: MIC.
Setting [6] is: SK23390, in vitro, S. aureus SK 23390, read-out: MIC.
Where [7] appears, read: Escherichia coli, HH33779, in vitro, E. coli HH 33779, read-out: MIC.
[8] abbreviates: HH31254, in vitro, Entero. cloacae HH 31254, read-out: MIC.
[9] abbreviates: in vitro, Serra. Marc. ATCC 13880, read-out: MIC.
Setting [10] is: HH127, in vitro, S. aureus HH 127, read-out: MIC.
[11] abbreviates: in vitro, Kleb. pneumo. SK 4200, read-out: MIC.

SMILES strings stand for the structures. Converted amounts (≈) assume the structure as drawn. Where two headings read alike, the source gives them in different places.

As to `NC(=O)CCn1nnnc1SCC1=C(C(=O)O)N2C(=O)C(NC(=O)[C@H](N)c3ccc(O)cc3)[C@H]2SC1` (stereo partly drawn) [X, 7-(D-α-Amino-4-hydroxyphenylacetamido)-3-[1-(2-carbamoylethyl)tetrazol-5-ylthiomethyl]-3-cephem-4-carboxylic acid], the ED50 (as a rule, the midpoint of the dose-response relation) worked out at 25 mg/kg with E. coli 12140 (setting [2]); 0.78 mg/kg in the assay with E. coli 12140 (setting [3]); 15.6 mg/kg with Kleb. pneumo. 4200 (po, Kleb. pneumo. 4200, p.o.); 0.62 mg/kg in the assay with Kleb. pneumo. 4200 (sc, Kleb. pneumo. 4200, s.c.). The MIC (in general, the least concentration at which growth counts as inhibited) was determined as 25 µg/mL (≈ 46.8 µM) in the assay with Proteus morgani 179 (read-out: MIC); 25 µg/mL (≈ 46.8 µM) in the assay with Strep. Faecalis HH 34358 (setting [4]); 1.6 µg/mL (≈ 2.99 µM) in the assay on Shigella HH 117 (setting [5]); 3.1 µg/mL (≈ 5.8 µM) in the assay on Kleb. pneumo. SK 1200 (read-out: MIC); 1.6 µg/mL (≈ 2.99 µM) against E. coli HH 33779 (Escherichia coli, HH33779); 0.8 µg/mL (≈ 1.5 µM) in the assay on Salmonella ATCC 12176. For the same compound, the MIC is over 200 µg/mL in the assay with Pseudo. sp. HH 63; 1.6 µg/mL (≈ 2.99 µM) with Entero. cloacae HH 31254 (HH31254); 6.3 µg/mL (≈ 11.8 µM) with S. aureus HH 127 (HH127); 1.6 µg/mL (≈ 2.99 µM) against Kleb. pneumo. SK 4200; 12.5 µg/mL (≈ 23.4 µM) in the assay with S. aureus SK 23390 (setting [6]); 1.6 µg/mL (≈ 2.99 µM) in the assay with E. coli SK 12140.
With `N[C@@H](C(=O)NC1C(=O)N2C(C(=O)O)=C(CSc3nnnn3CC(=O)O)CS[C@H]12)c1ccc(O)cc1` (stereo partly drawn) [II, 7-(D-α-Amino-4-hydroxyphenylacetamido)-3-(1-carboxymethyl-tetrazol-5-ylthiomethyl)-3-cephem-4-carboxylic acid], the MIC is over 200 µg/mL in the assay with Proteus morgani 179 (read-out: MIC); 100 µg/mL (≈ 192 µM) with Strep. Faecalis HH 34358 (setting [4]); 6.3 µg/mL (≈ 12.1 µM) in the assay on Shigella HH 117 (setting [5]); 6.3 µg/mL (≈ 12.1 µM) against Kleb. pneumo. SK 1200; 12.5 µg/mL (≈ 24 µM) in the assay with E. coli HH 33779 (setting [7]); 1.6 µg/mL (≈ 3.07 µM) in the assay on Salmonella ATCC 12176. Besides, the MIC is over 200 µg/mL in the assay on Pseudo. sp. HH 63; 25 µg/mL (≈ 47.9 µM) in [1] (in vitro, Entero. aerog. ATCC 13048, read-out: MIC); 1.6 µg/mL (≈ 3.07 µM) in the assay with Entero. cloacae HH 31254 (setting [8]); over 200 µg/mL in the assay on Serra. Marc. ATCC 13880 (setting [9]); 12.5 µg/mL (≈ 24 µM) in the assay on S. aureus HH 127 (setting [10]); 1.6 µg/mL (≈ 3.07 µM) with Kleb. pneumo. SK 4200 (setting [11]). Further, the MIC is 12.5 µg/mL (≈ 24 µM) in the assay with S. aureus SK 23390 (setting [6]) and 3.1 µg/mL (≈ 5.94 µM) in the assay on E. coli SK 12140 (read-out: MIC). The same compound yielded an ED50 in the assay on Kleb. pneumo. 4200 (po, Kleb. pneumo. 4200, p.o.) of 13.2 mg/kg.
For the compound `NC(=O)CCCn1nnnc1SCC1=C(C(=O)O)N2C(=O)C(NC(=O)CSC(F)(F)F)[C@H]2SC1` (some centres unmarked) [XX, 7-Trifluoromethylmercaptoacetamido-3-[1-(3-carbamoylpropyl)tetrazol-5-ylthiomethyl]-3-cephem-4-carboxylic acid], the ED50 with E. coli 12140 (setting [2]) turned out to be 21.5 mg/kg; with E. coli 12140 (setting [3]), 0.7 mg/kg. Further, the minimum inhibitory concentration (MIC) in the assay on Proteus morgani 179 (read-out: MIC) came out at 12.5 µg/mL (≈ 23.1 µM); in the assay on Strep. Faecalis HH 34358 (setting [4]), 6.3 µg/mL (≈ 11.6 µM); with Shigella HH 117 (setting [5]), 0.2 µg/mL (≈ 0.369 µM); with Kleb. pneumo. SK 1200, 0.4 µg/mL (≈ 0.739 µM); in the assay with E. coli HH 33779 (setting [7]), 0.8 µg/mL (≈ 1.48 µM); with Salmonella ATCC 12176, 0.2 µg/mL (≈ 0.369 µM). For the same compound, the MIC in the assay on Pseudo. sp. HH 63 was over 200 µg/mL; in [1], 3.1 µg/mL (≈ 5.72 µM); in the assay with Entero. cloacae HH 31254 (setting [8]), 0.8 µg/mL (≈ 1.48 µM); with S. aureus HH 127 (setting [10]), 0.4 µg/mL (≈ 0.739 µM); against Kleb. pneumo. SK 4200, 0.4 µg/mL (≈ 0.739 µM); in the assay with S. aureus SK 23390 (setting [6]), 0.2 µg/mL (≈ 0.369 µM). For the same compound, in the assay with E. coli SK 12140 (read-out: MIC), the MIC turned out to be 0.8 µg/mL (≈ 1.48 µM).
On to `NC(=O)CCn1nnnc1SCC1=C(C(=O)O)N2C(=O)C(NC(=O)[C@H](O)c3ccccc3)[C@H]2SC1` (stereo partly drawn) [VII, 7-D-Mandelamido-3-[1-(2-carbamoylethyl)tetrazol-5-ylthiomethyl]-3-cephem-4-carboxylic acid], for which the ED50 came out at 25 mg/kg with E. coli 12140 (setting [2]); 0.86 mg/kg with E. coli 12140 (setting [3]); 17 mg/kg in the assay with Kleb. pneumo. 4200 (po, Kleb. pneumo. 4200, p.o.); 0.78 mg/kg in the assay with Kleb. pneumo. 4200 (sc, Kleb. pneumo. 4200, s.c.). For the same compound, the MIC worked out at 0.8 µg/mL (≈ 1.54 µM) in the assay with Proteus morgani 179; 1.6 µg/mL (≈ 3.08 µM) in the assay on Proteus morgani 179 (read-out: MIC); 12.5 µg/mL (≈ 24.1 µM) in the assay on Strep. Faecalis HH 34358 (setting [4]); 25 µg/mL (≈ 48.1 µM) in the assay on Strep. Faecalis HH 34358; 0.2 µg/mL (≈ 0.385 µM) in the assay on Shigella HH 117 (setting [5]); 0.4 µg/mL (≈ 0.77 µM) with Shigella HH 117 (in vitro). For the same compound, the MIC with Kleb. pneumo. SK 1200 (read-out: MIC) is 0.8 µg/mL (≈ 1.54 µM); in the assay with E. coli HH 33779 (setting [7]) it was 1.6 µg/mL (≈ 3.08 µM); with E. coli HH 33779 (in vitro, E. coli HH 33779) it was 3.1 µg/mL (≈ 5.97 µM); in the assay with Salmonella ATCC 12176, 0.2 µg/mL (≈ 0.385 µM); in the assay with Pseudo. sp. HH 63, over 200 µg/mL; in the assay with Entero. cloacae HH 31254 (HH31254) it was 0.4 µg/mL (≈ 0.77 µM). Also, the MIC with Entero. cloacae HH 31254 (setting [8]) was found to be 1.6 µg/mL (≈ 3.08 µM); in the assay on Serra. Marc. ATCC 13880, 6.3 µg/mL (≈ 12.1 µM); in the assay on Serra. Marc. ATCC 13880 (setting [9]), 50 µg/mL (≈ 96.2 µM); with Kleb. pneumo. SK 4200, 0.4 µg/mL (≈ 0.77 µM); in the assay on Kleb. pneumo. SK 4200 (setting [11]) it was 0.8 µg/mL (≈ 1.54 µM); in the assay on S. aureus SK 23390 (SK23390), 0.4 µg/mL (≈ 0.77 µM). The figures for the MIC in the assay with S. aureus SK 23390 (setting [6]), against E. coli SK 12140 and in the assay on E. coli SK 12140 (read-out: MIC) were 0.8 µg/mL (≈ 1.54 µM), 0.4 µg/mL (≈ 0.77 µM) and 0.8 µg/mL (≈ 1.54 µM), respectively.
